Measured values as given in patent US12077503B2, “Substituted cyclic amides and their use as herbicides” (FMC CORPORATION, priority 2015, dated 2024).

What was measured:
Assay type in all cases: in vivo
Kochia (Kochia scoparia) [1] = assay: Test A preemergence; conditions: Bassia scoparia, pre-emergence, 240 h; for pest or weed control at 125 g/ha: 125 g ai/ha, preemergence, 0 to 100 scale where 0 is no effect and 100 is complete control, read-out: Kochia plant response rating; for pest or weed control at 500 g/ha: 500 g ai/ha, Preemergence, visual injury vs untreated controls after approximately 10 d, read-out: Kochia plant response rating (0 to 100 scale where 0 is no effect and 100 is complete control)
In short: (§1)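 Greenhouse, ~10 d after spray; visual injury vs untreated controls, 0 = no effect, 100 = complete control. Preemergence: directed soil spray over planted seeds. Postemergence: plants 2–10 cm, 1–2 leaf stage. Loam/sand blend. Compound in non-phytotoxic solvent with surfactant.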

[2] = tested on: giant foxtail (Setaria faberii); assay: Test A preemergence; conditions: Setaria faberi, pre-emergence, 240 h; for pest or weed control at 125 g/ha: 125 g ai/ha, preemergence, 0 to 100 scale where 0 is no effect and 100 is complete control, read-out: Foxtail, Giant plant response rating; for pest or weed control at 500 g/ha: 500 g ai/ha, Preemergence, visual injury vs untreated controls after approximately 10 d, read-out: Foxtail, Giant plant response rating (0 to 100 scale where 0 is no effect and 100 is complete control)
In short: as §1

[3] = tested on: ryegrass, Italian (Italian ryegrass, Lolium multiflorum); assay: Test A preemergence; conditions: Lolium multiflorum, pre-emergence, 240 h; for pest or weed control at 125 g/ha: 125 g ai/ha, preemergence, 0 to 100 scale where 0 is no effect and 100 is complete control, read-out: Ryegrass, Italian plant response rating; for pest or weed control at 500 g/ha: 500 g ai/ha, Preemergence, visual injury vs untreated controls after approximately 10 d, read-out: Ryegrass, Italian plant response rating (0 to 100 scale where 0 is no effect and 100 is complete control)
In short: as §1

[4] = tested on: pigweed (Amaranthus retroflexus); assay: Test A preemergence; conditions: Amaranthus retroflexus, pre-emergence, 240 h; for pest or weed control at 125 g/ha: 125 g ai/ha, preemergence, 0 to 100 scale where 0 is no effect and 100 is complete control, read-out: Pigweed plant response rating; for pest or weed control at 500 g/ha: 500 g ai/ha, Preemergence, visual injury vs untreated controls after approximately 10 d, read-out: Pigweed plant response rating (0 to 100 scale where 0 is no effect and 100 is complete control)
[5] = tested on: ragweed (common ragweed, Ambrosia elatior); assay: Test A preemergence; conditions: Ambrosia artemisiifolia, pre-emergence, 240 h; for pest or weed control at 125 g/ha: 125 g ai/ha, preemergence, 0 to 100 scale where 0 is no effect and 100 is complete control, read-out: Ragweed plant response rating; for pest or weed control at 500 g/ha: 500 g ai/ha, Preemergence, visual injury vs untreated controls after approximately 10 d, read-out: Ragweed plant response rating (0 to 100 scale where 0 is no effect and 100 is complete control)
In short: as §1

[6] = tested on: barnyardgrass (Echinochloa crus-galli); assay: Test A preemergence; conditions: Echinochloa crus-galli, pre-emergence, 240 h; for pest or weed control at 125 g/ha: 125 g ai/ha, preemergence, 0 to 100 scale where 0 is no effect and 100 is complete control, read-out: Barnyardgrass plant response rating; for pest or weed control at 500 g/ha: 500 g ai/ha, Preemergence, visual injury vs untreated controls after approximately 10 d, read-out: Barnyardgrass plant response rating (0 to 100 scale where 0 is no effect and 100 is complete control)
In short: as §1

[7] = tested on: blackgrass (Alopecurus myosuroides); assay: Test A postemergence; conditions: Alopecurus myosuroides, post-emergence, 240 h, 125 g ai/ha, postemergence, visual injury rating after approximately 10 d; read-out: Blackgrass plant response rating (0 to 100 scale, 0 no effect, 100 complete control)
In short: as §1

corn (Zea mays) = assay: Test A postemergence; conditions: Zea mays, post-emergence, 240 h, 125 g ai/ha, postemergence, visual injury rating after approximately 10 d; read-out: Corn plant response rating (0 to 100 scale, 0 no effect, 100 complete control)
In short: as §1

Kochia (Kochia scoparia) [8] = assay: Test A postemergence; conditions: Bassia scoparia, post-emergence, 240 h, 125 g ai/ha, postemergence, visual injury rating after approximately 10 d; read-out: Kochia plant response rating (0 to 100 scale, 0 no effect, 100 complete control)
In short: as §1

[9] = tested on: giant foxtail (Setaria faberii); assay: Test A postemergence; conditions: Setaria faberi, post-emergence, 240 h, 125 g ai/ha, postemergence, visual injury rating after approximately 10 d; read-out: Foxtail, Giant plant response rating (0 to 100 scale, 0 no effect, 100 complete control)
In short: as §1

[10] = tested on: ryegrass, Italian (Italian ryegrass, Lolium multiflorum); assay: Test A postemergence; conditions: Lolium multiflorum, post-emergence, 240 h, 125 g ai/ha, postemergence, visual injury rating after approximately 10 d; read-out: Ryegrass, Italian plant response rating (0 to 100 scale, 0 no effect, 100 complete control)
In short: as §1

[11] = tested on: pigweed (Amaranthus retroflexus); assay: Test A postemergence; conditions: Amaranthus retroflexus, post-emergence, 240 h, 125 g ai/ha, postemergence, visual injury rating after approximately 10 d; read-out: Pigweed plant response rating (0 to 100 scale, 0 no effect, 100 complete control)
In short: as §1

[12] = tested on: wheat (Triticum aestivum); assay: Test A postemergence; conditions: Triticum aestivum, post-emergence, 240 h, 125 g ai/ha, postemergence, visual injury rating after approximately 10 d; read-out: Wheat plant response rating (0 to 100 scale, 0 no effect, 100 complete control)
In short: as §1

[13] = tested on: barnyardgrass (Echinochloa crus-galli); assay: Test A postemergence; conditions: Echinochloa crus-galli, post-emergence, 240 h, 125 g ai/ha, postemergence, visual injury rating after approximately 10 d; read-out: Barnyardgrass plant response rating (0 to 100 scale, 0 no effect, 100 complete control)
In short: as §1

[14] = tested on: Galium (catchweed bedstraw, Galium aparine); assay: Test A postemergence; conditions: Galium, post-emergence, 240 h, 125 g ai/ha, postemergence, visual injury rating after approximately 10 d; read-out: Galium plant response rating (0 to 100 scale, 0 no effect, 100 complete control)
In short: as §1

SMILES | pest or weed control at 125 g/ha (Kochia (Kochia scoparia) [1]) [%] | pest or weed control at 125 g/ha [2] [%] | pest or weed control at 500 g/ha [2] [%] | pest or weed control at 125 g/ha [3] [%] | pest or weed control at 500 g/ha [3] [%] | pest or weed control at 125 g/ha [4] [%] | pest or weed control at 500 g/ha [4] [%] | pest or weed control at 125 g/ha [5] [%] | pest or weed control at 500 g/ha [5] [%] | pest or weed control at 125 g/ha [6] [%] | pest or weed control at 500 g/ha [6] [%] | pest or weed control at 125 g/ha [7] [%] | plant injury at 125 g/ha (corn (Zea mays)) [%] | pest or weed control at 125 g/ha (Kochia (Kochia scoparia) [8]) [%] | pest or weed control at 125 g/ha [9] [%] | pest or weed control at 125 g/ha [10] [%] | pest or weed control at 125 g/ha [11] [%] | plant injury at 125 g/ha [12] [%] | pest or weed control at 125 g/ha [13] [%] | pest or weed control at 125 g/ha [14] [%] | other results
COc1cc([C@H]2CN(C)C(=O)[C@@H]2C(=O)Nc2cccc(F)c2F)cc(C(F)(F)F)c1 [Compound 856] | 40 | 90 | 90 | 50 | 80 | 20 | 50 | 0 | 20 | 90 | 90 | 60 | 80 | 30 | 90 | 40 | 20 | 50 | 80 | 40 | pest or weed control at 500 g/ha (Kochia (Kochia scoparia) [1]): 50%
COc1cc(C(F)(F)F)ccc1[C@H]1CN(C)C(=O)[C@@H]1C(=O)Nc1cccc(F)c1F [Compound 859] | 50 | 90 | 90 | 20 | 80 | 60 | 80 | 0 | 50 | 90 | 90 | 30 | 50 | 20 | 80 | 20 | 20 | 20 | 80 | 50 | pest or weed control at 500 g/ha (Kochia (Kochia scoparia) [1]): 60%
COc1cc(C(F)(F)F)ccc1[C@H]1CN(C)C(=O)[C@@H]1C(=O)Nc1ccccc1SC [Compound 860] | 0 | 90 | 90 | 20 | 40 | 60 | 90 | 0 | 50 | 90 | 90 | 0 | 0 | 0 | 60 | 0 | 0 | 20 | 30 | 20 | pest or weed control at 500 g/ha (Kochia (Kochia scoparia) [1]): 60%
CSc1ccccc1NC(=O)[C@H]1C(=O)NC[C@@H]1c1cccc2c1OC(F)(F)O2 [Compound 865] | 0 | 0 | 80 | 0 | 0 | 0 | 0 | 0 | 0 | 0 | 70 | 0 | 0 | 0 | 0 | 0 | 0 | 0 | 0 | 0 | 
CSc1ccccc1NC(=O)[C@H]1C(=O)N(C)C[C@@H]1c1cc(F)c(F)c(F)c1 [Compound 866] | 20 | 90 | 90 | 50 | 70 | 0 | 50 | 0 | 30 | 30 | 90 | 0 | 30 | 20 | 70 | 20 | 0 | 0 | 60 | 20 | pest or weed control at 500 g/ha (Kochia (Kochia scoparia) [1]): 80%
CN1C[C@H](c2cc(F)cc(F)c2)[C@@H](C(=O)Nc2ccccc2[S@+](C)[O-])C1=O [Compound 871] | 80 | 80 | 80 | 0 | 30 | 0 | 30 | 0 | 20 | 20 | 90 | 0 | 20 | 0 | 40 | 20 | 0 | 20 | 50 | 50 | pest or weed control at 500 g/ha (Kochia (Kochia scoparia) [1]): 80%
